Test results as given in patent publication EP4745134A1 (Jiangsu Yahong Meditech Co., Ltd., priority 2023, dated 2025).

These compounds were tested against PRMT5-MTA (Homo sapiens, UniProt O14744) (assay: Enzymatic inhibitory activity against PRMT5-MTA (AlphaScreen)). Settings: read-out: IC50.
Chain of PRMT5-MTA (O14744 whole entry): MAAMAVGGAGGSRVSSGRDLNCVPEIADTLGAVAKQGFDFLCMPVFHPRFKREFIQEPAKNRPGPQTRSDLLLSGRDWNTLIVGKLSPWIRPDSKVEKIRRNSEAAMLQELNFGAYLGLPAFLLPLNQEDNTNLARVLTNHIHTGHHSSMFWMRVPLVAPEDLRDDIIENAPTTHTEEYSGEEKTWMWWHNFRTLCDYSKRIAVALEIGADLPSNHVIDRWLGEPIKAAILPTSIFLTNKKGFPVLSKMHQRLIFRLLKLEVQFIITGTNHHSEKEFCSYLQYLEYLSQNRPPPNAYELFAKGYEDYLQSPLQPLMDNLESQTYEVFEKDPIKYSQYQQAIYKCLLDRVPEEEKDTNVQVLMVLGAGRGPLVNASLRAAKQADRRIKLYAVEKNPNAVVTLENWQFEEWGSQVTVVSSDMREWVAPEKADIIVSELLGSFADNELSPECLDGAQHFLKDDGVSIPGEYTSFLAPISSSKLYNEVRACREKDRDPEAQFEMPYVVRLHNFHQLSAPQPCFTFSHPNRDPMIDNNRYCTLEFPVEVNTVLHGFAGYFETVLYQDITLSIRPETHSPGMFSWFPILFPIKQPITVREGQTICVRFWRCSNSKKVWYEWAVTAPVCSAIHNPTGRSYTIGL
Chain of PRMT5-MTA (Q9BQA1 whole entry partner): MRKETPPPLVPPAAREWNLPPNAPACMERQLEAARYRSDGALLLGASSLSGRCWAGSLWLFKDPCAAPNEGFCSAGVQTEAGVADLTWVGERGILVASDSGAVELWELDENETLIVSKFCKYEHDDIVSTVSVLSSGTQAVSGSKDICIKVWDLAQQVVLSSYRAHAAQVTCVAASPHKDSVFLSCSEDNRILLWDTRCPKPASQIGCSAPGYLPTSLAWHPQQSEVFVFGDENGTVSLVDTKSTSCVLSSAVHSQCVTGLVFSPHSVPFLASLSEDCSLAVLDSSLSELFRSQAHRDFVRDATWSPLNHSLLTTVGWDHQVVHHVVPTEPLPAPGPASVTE
Format: biochemical
Protocol: The AlphaScreen method was used to detect the enzymatic inhibitory activity of the compounds against PRMT5-MTA. 1 x Methyltransferase assay buffer IV (signalchem) was prepared as a solution for diluting each component for the enzymatic reaction. PRMT5/[…] protein of a final concentration of 1 nM, […] (sigma) of a final concentration of 1 uM and S-(5'-adenosine)-L-methionine chloride dihydrochloride (sigma) of a final concentration of 2.5 uM were mixed, then incubated for 30 minutes at room temperature, and transferred to an OptiPlate-384 well plate (PerkinElmer) at a volume of 6 uL per well, for which no PRMT5/[…] protein was added to the control wells. The test compound was 3-fold serially diluted into 10 concentrations, starting from a concentration of 1000 nM, and the series of diluted compounds were added to all wells except the control wells in the well plate using Tecan D300e. The well plate was subjected to centrifugation for 1 minute at 1000 rpm in a centrifuge, and then incubated for 15 minutes at 23°C. Histone H4 substrate of a final concentration of 5 nM was added to the well plate at 4 uL per well, centrifuged for 1 minute at 1000 rpm in a centrifuge, then placed in an incubator at 23°C and reacted for 45 minutes. Anti-histone H4 (symmetrical dimethyl R3) antibody (Abcam) was incubated with 50 ug/mL of AlphaScreen Protein A Acceptor beads (PerkinElmer) for 10 minutes at room temperature beforehand, and then added to the well plate at a volume of 10 uL per well. The mixture was reacted for 1 hour at room temperature. 50 Ug/mL of AlphaScreen Streptavidin Donor beads (PerkinElmer) was added at 10 uL per well, and reacted for 1 hour at room temperature. The signal values were detected for the well plate through the Alpha method using an Envision multifunctional microplate-reader, and the IC50 values for inhibition of the compounds on PRMT5/MET50 enzyme activity were calculated in Xlfit 5.0 software. Table 1. IC50 values for inhibition of the compounds on PRMT5+MTA enzyme activity
In the case of Cc1cc(N)nc2ccc(C(=O)N(Cc3ccc(C(F)(F)F)cn3)N(C)c3ncccn3)cc12 [Compound 30, 2-amino-N',4-dimethyl-N'-(pyrimidin-2-y 1)-N-((5-(trifluoromethyl)pyridin-2-yl)methyl)quinoline-6-carbohydrazide], the IC50 is reported as 1.9 nM.
Work on Cc1cc2nc(N)c3cnn(C)c3c2cc1C(=O)N(C)N1CCc2ncccc21 [Compound 114, 4-amino-N-(2,3-dihydro-1H-pyrrolo[3,2-b]pyridin-1-yl)-N,1,7-trimethyl-1H-pyraz olo[4,3-c]quinoline-8-carboxamide] yielded an IC50 of 4 nM.
Cc1cc2cc(C(=O)N(Cc3ccc(-c4ccc(N(C)C5CC5)nc4)cn3)N(C)c3ncccn3)ccc2nc1N [Compound 247, 2-amino-N-((6'-(cyclopropyl(methyl)amino)-[3,3'-bipyridine]-6-yl)methyl)-N',3-di methyl-N'-(pyrimidin-2-yl)quinoline-6-carbohydrazide] gave an IC50 of 7.7 nM.
In the case of Cc1ncsc1-c1ccc(CN(C(=O)c2ccc3nc(N)c(CF)cc3c2)N(c2ncccn2)C2CC2)nc1 [Compound 324, 2-amino-N'-cyclopropyl-3-(fluoromethyl) -N-((5-(4-methylthiazol-5-yl)pyridin-2-yl)methyl)-N'-(pyrimidin-2-yl)quinoline-6-carbohydrazide], the IC50 is reported as 4.4 nM.
Compound COCCN(c1ncccn1)N(Cc1ccc(C(F)(F)F)cn1)C(=O)c1ccc2nc(N)c(C)cc2c1 [Example 4, 2-amino-N'-(2-methoxyethyl)-3-methyl-N'-(pyrimidin-2-yl)-N-((5-(trifluoromethyl)pyridin-2-yl)methyl)quinoline-6-carbohydrazide] has an IC50 of 2 nM.
Cc1cc2cc(C(=O)N(Cc3ccccn3)N(C)c3ncccn3)ccc2nc1N [Example 9, 2-amino-N',3-dimethyl-N-(pyridin-2-ylmethyl)-N'-(pyrimidin-2-yl)quinoline-6-carbohydrazide] was tested, and the IC50 was 3.2 nM.
CN(c1ncccn1)N(Cc1ccc(C(F)(F)F)cn1)C(=O)c1ccc2nc(N)c3cnn(C)c3c2c1 [Example 11, 4-amino-N',1-dimethyl-N'-(pyrimidin-2-y 1)-N-((5-(trifluoromethyl)pyridin-2-yl)methyl)-1H-pyrazolo[4,3-c]quinoline-8-carb ohydrazide] showed an IC50 of 1 nM.
Compound CN(c1ncccn1)N(Cc1ccc(C(F)(F)F)cn1)C(=O)c1ccc2nc(N)c3c(c2c1)COC3 [Example 12, 4-amino-N'-methyl-N'-(pyrimidin-2-yl)-N-((5-(trifluoromethyl)pyridin-2-yl)methyl)-1,3-dihydrofuro[3,4-c]quinoline-8-car bohydrazide] has an IC50 of 7.8 nM.
Cc1cc2nc(N)c3cnn(C)c3c2cc1C(=O)N(Cc1ccc(C(F)(F)F)cn1)N(C)c1ncccn1 [Example 13, 4-amino-N',1,7-trimethyl-N'-(pyrimidin-2-yl)-N-((5-(trifluoromethyl)pyridin-2-yl)methyl)-1H-pyrazolo[4,3-c]quinoline-8-c arbohydrazide] gave an IC50 of 4 nM.
Work on CN(c1ncccn1)N(Cc1ccc(C(F)(F)F)cn1)C(=O)c1cc2c(cc1F)nc(N)c1cnn(C)c12 [Example 14, 4-amino-7-fluoro-N',1-dimethyl-N'-(pyrimidin-2-yl)-N-((5-(trifluoromethyl)pyridin-2-yl)methyl)-1H-pyrazolo[4,3-c]quinoline-8-carbohydrazide] yielded an IC50 of 2 nM.
CN(c1ncccn1)N(Cc1ccc(C(F)(F)F)cn1)C(=O)c1cc2c(cc1Cl)nc(N)c1cnn(C)c12 [Example 17, 4-amino-7-chloro-N',1-dimethyl-N'-(pyrimidin-2-yl)-N-((5-(trifluoromethyl)pyridin-2-yl)methyl)-1H-pyrazolo[4,3-c]quinoline-8-carbohydrazide] was tested, and the IC50 was 7 nM.
Cc1cc2cc(C(=O)N(Cc3ccc(C(F)(F)F)cn3)n3cnc4cccnc43)ccc2nc1N [Example 27, 2-amino-N-(3H-imidazo[4,5-b]pyridin-3-yl)-3-methyl-N-((5-(trifluoromethyl)pyridin-2-yl)methyl)quinoline-6-carboxamide] showed an IC50 of 4 nM.
CN(c1ncccn1)N(Cc1ccc(C(F)(F)F)cn1)C(=O)c1ccc2nc(N)cc(C3CC3)c2c1 [Example 29, 2-amino-4-cyclopropyl-N'-methyl-N'-(pyrimidin-2-yl)-N-((5-(trifluoromethyl)pyridin-2-yl)methyl)quinoline-6-carbohydrazide] was tested, and the IC50 was 1.6 nM.
In the case of CN(C(=O)c1cc2c(cc1F)nc(N)c1cnn(C)c12)N1CCc2cc(C(F)(F)F)cnc21 [Example 31, 4-amino-7-fluoro-N,1-dimethyl-N-(5-(trifluoromethyl)-2,3-dihydro-1H-pyrrolo[2,3-b]pyridin-1-yl)-1H-pyrazolo[4,3-c]quinoline-8-carboxamide], the IC50 is reported as 3.5 nM.
In the case of CN(C(=O)c1cc2c(cc1F)nc(N)c1cnn(C)c12)N(C)c1ncc(C(F)(F)F)cc1F [Example 37, 4-amino-7-fluoro-N'-(3-fluoro-5-(trifluor omethyl)pyridin-2-yl)-N,N',1-trimethyl-1 H-pyrazolo[4,3-c]quinoline-8-carbohydrazide], the IC50 is reported as 3.5 nM.
Cc1cc2cc(C(=O)N(Cc3ncccc3C(F)(F)F)N(C)c3ncccn3)ccc2nc1N [Example 41, 2-amino-N',3-dimethyl-N'-(pyrimidin-2-yl)-N-((3-(trifluoromethyl)pyridin-2-yl)methyl)quinoline-6-carbohydrazide] showed an IC50 of 3.9 nM.
In the case of Cc1cc2cc(C(=O)N(Cc3ccc(C(F)(F)F)cn3)N(C)c3cc(C(F)(F)F)ccn3)ccc2nc1N [Example 43, 2-amino-N',3-dimethyl-N'-(4-(trifluoromethyl)pyridin-2-yl)-N-((5-(trifluoromethyl)pyridin-2-yl)methyl)quinoline-6-carbohydrazide], the IC50 is reported as 3.8 nM.
In the case of Cc1cc2cc(C(=O)N(Cc3ccc(C(F)(F)F)cn3)N(C)c3c(F)cccc3C(F)(F)F)ccc2nc1N [Example 44, 2-amino-N'-(2-fluoro-6-(trifluoromethyl)phenyl)-N',3-dimethyl-N-((5-(trifluoromethyl)pyridin-2-yl)methyl)quinoline-6-car bohydrazide], the IC50 is reported as 1.9 nM.
For Cc1cc2cc(C(=O)N(Cc3ccc(C(F)(F)F)cn3)N(C)c3nccc4ccccc34)ccc2nc1N [Example 45, 2-amino-N'-(isoquinol-1-yl)-N',3-dimethyl-N-((5-(trifluoromethyl)pyridin-2-yl)methyl)quinoline-6-carbohydrazide], the IC50 was 3.1 nM.
CN(c1ccc(C(F)(F)F)cn1)N(CC(F)(F)F)C(=O)c1ccc2nc(N)c3c(c2c1)COC3 [Example 54, 4-amino-N'-methyl-N-(2,2,2-trifluoroethyl)-N'-(5-(trifluoromethyl)pyridin-2-yl)-1,3-dihydrofuro[3,4-c]quinoline-8-carbohydrazide] showed an IC50 of 15.8 nM.
CN(C(=O)c1ccc2nc(N)c3c(c2c1)COC3)N(C)c1ccc(C(F)(F)F)cn1 [Example 55, 4-amino-N,N'-dimethyl-N'-(5-(trifluoromethyl)pyridin-2-yl)-1,3-dihydrofuro[3,4-c]quinoline-8-carbohydrazide] showed an IC50 of 4.6 nM.
Cc1cc2cc(C(=O)N(Cc3ccc(F)cn3)N(C)c3ncccn3)ccc2nc1N [Example 71, 2-amino-N-((5-fluoropyridin-2-yl)methyl)-N',3-dimethyl-N'-(pyrimidin-2-yl)quin oline-6-carbohydrazide] showed an IC50 of 3.3 nM.
In the case of Cc1cc2cc(C(=O)N(Cc3ccc(C(F)(F)F)cn3)N(C)c3ncc(C(F)(F)F)cn3)ccc2nc1N [Example 77, 2-amino-N',3-dimethyl-N-((5-(trifluoromethyl)pyridin-2-yl)methyl)-N'-(5-(trifluor omethyl)pyrimidin-2-yl)quinoline-6-carbohydrazide], the IC50 is reported as 1.1 nM.
Work on Cc1cc2cc(C(=O)N(Cc3ccc(C(F)(F)F)cn3)N(C)c3cccnn3)ccc2nc1N [Example 79, 2-amino-N',3-dimethyl-N'-(pyridazin-3-yl)-N-((5-(trifluoromethyl)pyridin-2-yl)methyl)quinoline-6-carbohydrazide] yielded an IC50 of 9.7 nM.

Each compound was assayed on HCT116 MTAP KO cells (assay: Inhibitory activity against cell proliferation (CellTiter Glo, 6 days), HCT116 MTAP KO). Settings: Homo sapiens, HCT-116, 144 h, HCT116 MTAP KO cells, 6 days, CellTiter Glo; read-out: HCT116 MTAP KO IC50.
Format: cell-based
Protocol: HCT116-WT (ATCC, CCL-247) and HCT116 MTAP KO (Nanjing Cobioer, CBP75002) cells were seeded into white low-transparency sterile 96-well cell culture plates at a density of 250 cells per well respectively, and the culture medium was McCoy's 5A Medium+10% FBS. The plates were placed under the condition of 37°C and 5% CO2 to be cultured overnight. The cells were treated with 4-fold serially diluted compounds of 8 concentration points starting at an initial concentration of 10000 nM, and the last two columns were used as control wells to which only DMSO was added. The drug-treated cells were further cultured for 6 days. On day 7, CellTiter Glo® reagent was added at 50 uL per well, and after reaction under shaking for 10 minutes at room temperature, the chemiluminescence signals were detected for the well plates through the chemiluminescence detection method using a BIOTEK H1 multifunctional microplate-reader. The IC50 values for inhibition of the compounds on cell viability were calculated in X1fit 5.0 software. Table 2. IC50 values for inhibition of the compounds on HCT116 MTAP KO/WT cell growth
CN(c1ncccn1)N(Cc1ccc(C(F)(F)F)cn1)C(=O)c1ccc2c(c1)nc(N)n2C [Example 36, 2-amino-N',1-dimethyl-N'-(pyrimidin-2-yl)-N-((5-(trifluoromethyl)pyridin-2-yl)methyl)-1H-benzo[d]imidazole-5-carbohydrazide] gave an IC50 of over 10000 nM.
